Patent publication US5919796A, “Hydroximic acid derivatives, pharmaceutical compositions containing them, and processes for preparing the same” (BIOREX Kutato es Fejleszto Rt., priority 1994, dated 1999)
Structures can show the parent of a compound that is named as a salt.

Columns and labels:
sciatic and tibial nerve = experiment: Motor and sensory impulse conduction rate of nerves in STZ-induced diabetic rats (diabetic angiopathy complications); type: in vivo, male Cr:Wistar rats; details: for MCR correction (%): motor conduction rate; for SCR correction (%): sensory conduction rate
Protocol: Furthermore, the effect of the compounds of the invention in the treatment of complications associated with the diabetic angiopathy was studied. The in vivo action was measured on rats, by the change of rate of the impulse conduction in an STZ-induced diabetic state as follows.
The electrophysiological measurements were carried out on anaesthetized male Cr:Wistar rats at the end of a one-month period of treatment with 20 mg/kg administered orally (p.o.). The sciatic or tibial nerve, respectively, was excited by needle electrodes stitched near the nerve on the lower extremity and the electromyographic (EMG) responses of the plantar muscle were registered. Five EMG-s each were averaged and the results were stored in a computer. The latency periods of the motor and sensory components were measured. The rates of impulse conduction were calculated from the ratio of the distance between two sites of excitation to the differences of latency.

[1] = system: thoracal aorta isolated from rabbit; experiment: Vasorelaxant effect in vitro on isolated thoracal aorta; details: Oryctolagus cuniculus
Text: The vasorelaxant effect of the compounds was investigated in vitro on the thoracal aorta isolated from rabbit [Am. J. Physiol. 257, 1327-1333 (1989)].

[2] = system: Reperfusion-induced arrhythmia; experiment: Reperfusion-induced arrhythmia (ventricular tachycardia and fibrillation, survival) in anaesthetized rats; type: in vivo, rat; details: 1 mg/kg i.v., 5 minutes before compressing the left-sided descending coronary artery; first 3 minutes of reperfusion
Protocol: The Reperfusion-induced arrhythmia [ventricular tachycardia (VI) and ventricular fibrillation (VF)] was studied on anaesthetized rats. Myocardial ischemia was elicited by compressing the left-sided descending coronary artery for 5 minutes and after the ceasing thereof, by a 10-minute reperfusion of the heart. ECG was continuously monitored, and the change of the mean duration of VT and VF under effect of the test compounds, as well as the survival, were measured in the first 3 minutes of reperfusion. The test compounds were administered in an intravenous (i.v.) dose of 1 mg/kg by 5 minutes before compressing the left-sided descending coronary artery.

[3] = 20 mg/kg p.o., one-month treatment

Compound: ClC(=NOCCCN1CCCCC1)c1cccnc1 [Example 2, N-(3-piperidinopropoxy)-3-pyridinecarboximodyl chloride dihydrochloride]
- MCR correction (%) (sciatic and tibial nerve; [3]): 100%
- SCR correction (%) (sciatic and tibial nerve; [3]): 100%
- EC50 [1]: 27 µM
- survival of experimental animals [2]: 100%

Compound: CCN(CC)CCCON=C(Cl)c1cccnc1 [Example 4, O-(3-diethylaminopropyl)-3-pyridinehydroximoyl chloride hydrochloride]
- EC50 [1]: 82 µM

Compound: ClC(=NOCCCN1CCOCC1)c1cccnc1 [Example 5, O-(3-morpholinopropyl)-3-pyridinehydroximoyl chloride dihydrochloride]
- EC50 [1]: 24 µM

Compound: ClC(=NOCCN1CCCCC1)c1cccnc1 [Example 6, O-(2-piperidinoethyl)-3-pyridinehydroximoyl chloride hydrochloride]
- EC50 [1]: 13 µM

Compound: Cl.O=[N+]([O-])c1cccc(C(Cl)=NOCCCN2CCCCC2)c1 [Example 7, O-(3-piperidinopropyl)-3-nitro-benzhydroximoyl chloride hydrochloride]
- MCR correction (%) (sciatic and tibial nerve; [3]): 48%
- SCR correction (%) (sciatic and tibial nerve; [3]): 64%
- EC50 [1]: 6 µM
- survival of experimental animals [2]: 100%

Compound: FC(F)(F)c1cccc(C(Cl)=NOCCCN2CCCCC2)c1 [Example 8, N-[3-(1-piperidinyl)propoxy]-3'-(trifluoromethyl)benzimidoylchloride hydrochloride]
- EC50 [1]: 15 µM

Compound: CN1CCN(CCCON=C(Cl)c2cccnc2)CC1 [Example 9, N-[3-(4-methylpiperazin-1-yl)-1-propoxy]-3-pyridinecarboximidoyl chloride trihydrochloride]
- EC50 [1]: 76 µM

Compound: CC(C)COCC(CN(Cc1ccccc1)c1ccccc1)N1CCCC1 (stereo not shown) [Ref, Bepridil, reference compound]
- EC50 [1]: 83 µM

Compound: N=C(N)NN [Reference drug, aminoguanidine, reference compound]
- MCR correction (%) (sciatic and tibial nerve; 50 mg/kg of aminoguanidine): 40%
- SCR correction (%) (sciatic and tibial nerve; 50 mg/kg of aminoguanidine): 45%
